Measurements: US9688681B2, “Heterocyclic compounds as pest control agents” (BAYER CROPSCIENCE AKTIENGESELLSCHAFT, priority 2013, dated 2017)
Read-outs that look alike come from different tables or passages of the source.

How the values were obtained:
[1] = tested on: green peach aphid (Myzus persicae); conditions: application rate 20 ppm, after 6 days, bell pepper plants sprayed to runoff
Experimental: Myzus persicae—Spray Test
Solvent: 7 parts by weight of dimethylformamide
Emulsifier: alkylaryl polyglycol ether
To produce an appropriate active ingredient formulation, 1 part by weight of active ingredient is dissolved using the specified parts by weight of solvent and made up with water containing an emulsifier concentration of 1000 ppm until the desired concentration is attained. To produce further test concentrations, the preparation is diluted with emulsifier-containing water. If the addition of ammonium salts or/and penetrants is required, these are each added in a concentration of 1000 ppm to the formulation solution.
After 6 days, the kill in % is determined. 100% means that all the aphids have been killed; 0% means that no aphids have been killed.

[2] = log P by HPLC on reversed-phase C18 columns (OECD Guideline 117); format: physicochemical; conditions: for logP[b]: HPLC RP C18, neutral range pH 7.8, 0.001 molar aqueous ammonium hydrogencarbonate/acetonitrile; for chromatographic logP: reversed-phase C18 HPLC column
[3] = tested on: green peach aphid (Myzus persicae); assay: Myzus persicae spray test on Chinese cabbage leaf discs; format: in vivo; conditions: application rate 500 g/ha, after 6 days
From the text: Discs of Chinese cabbage leaves (Brassica pekinensis) infested by all stages of the green peach aphid (Myzus persicae) are sprayed with an active ingredient formulation of the desired concentration.

[4] = tested on: southern root-knot nematode (Meloidogyne incognita); conditions: application rate 20 ppm, after 14 days, lettuce in sand
Experimental: Meloidogvne incognita Test (MELGIN)
Solvent: 125.0 parts by weight of acetone
To produce an appropriate active ingredient formulation, 1 part by weight of active ingredient is mixed with the specified amounts of solvent and the concentrate is diluted to the desired concentration with water.
Vessels are filled with sand, active ingredient solution, an egg/larvae suspension of the southern root-knot nematode (Meloidogyne incognita) and lettuce seeds. The lettuce seeds germinate and the plants develop.
After 14 days, the nematicidal efficacy in % is determined by the formation of galls.

[5] = HPLC RP C18, acidic range pH 2.7, 0.1% aqueous formic acid/acetonitrile

| chromatographic logP ([2]; pH 2.7, HPLC RP C18, acidic range pH 2.7, 0.1% aqueous formic acid/acetonitrile, read-out: logP[a]) | chromatographic logP ([2]; pH 7.8, HPLC RP C18, neutral range pH 7.8, 0.001 molar aqueous ammonium hydrogencarbonate/acetonitrile, read-out: logP[b]) | Compound | efficacy (kill) [1] | logP[a] [2, 5] | logP[b] [2] | efficacy (aphids killed) [3] | nematicidal efficacy (formation of galls) [4] | logP[a] ([2]; pH 2.7) |
| --- | --- | --- | --- | --- | --- | --- | --- | --- |
| – | – | CSCCn1cnc2nn(-c3cccnc3)cc2c1=O [compound 27] | 90% | 1.13 | 1.19 | – | – | – |
| – | – | CSCC(C)n1cnc2nn(-c3cccnc3)cc2c1=O (stereo not shown) [compound 31] | 95% | 1.36 | 1.40 | – | – | – |
| – | – | O=c1c2cn(-c3cccnc3)nc2ncn1-c1ccc(Cl)cc1 [compound 14] | – | 1.74 | – | 90% | 100% | – |
| – | – | Cc1nc2nn(-c3cccnc3)cc2c(=O)n1C(C)C [compound 28] | – | 1.28 | 1.35 | 90% | – | – |
| – | – | O=c1c2cn(-c3cccnc3)nc2ncn1CC(F)F [compound 25] | – | 0.91 | 0.96 | 100% | – | – |
| 0.93 | 1.03 | CCn1c(C)nc2nn(-c3cccnc3)cc2c1=O [compound 29, 5-Ethyl-6-methyl-2-(pyridin-3-yl)-2,5-dihydro-4H-pyrazolo[3,4-d]pyrimidin-4-one] | – | – | – | 90% | – | – |
| – | – | N#CC1(n2cnc3nn(-c4cccnc4)cc3c2=O)CC1 [compound 30] | – | 0.82 | 0.85 | 100% | – | – |
| – | – | O=c1c2cn(-c3cccnc3)nc2ncn1C1CC1 [compound 23] | – | 0.79 | 0.83 | 100% | – | – |
| – | – | O=c1c2cnn(-c3cccnc3)c2ncn1CC(F)(F)F [compound 3] | – | – | – | 100% | – | 1.48 |
| – | – | O=c1c2cn(-c3cccnc3)nc2ncn1-c1ccccc1 [compound 10] | – | 1.40 | – | 90% | – | – |
